The target in this experiment is recombinant human HPK1 (Homo sapiens (Human), UniProt Q92918). As to the kind of experiment: HPK1 kinase assay (ADP-Glo). Type of experiment: biochemical. The settings on record: 25 μM ATP, MBP substrate. The procedure, abridged: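 Activity was read as ADP formed, detected by ADP-Glo luminescence after the reaction of 5 ng recombinant human HPK1 with MBP and ATP (stocks 0.5 μg/μl and 25 μM) for 40 min at 30 °C. Buffer was Tris pH 7.5 with MgCl2, BSA and DTT, with compound in 0.5% DMSO. IC50 came from inhibition curves.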
recombinant human HPK1, sequence (Q92918 whole entry): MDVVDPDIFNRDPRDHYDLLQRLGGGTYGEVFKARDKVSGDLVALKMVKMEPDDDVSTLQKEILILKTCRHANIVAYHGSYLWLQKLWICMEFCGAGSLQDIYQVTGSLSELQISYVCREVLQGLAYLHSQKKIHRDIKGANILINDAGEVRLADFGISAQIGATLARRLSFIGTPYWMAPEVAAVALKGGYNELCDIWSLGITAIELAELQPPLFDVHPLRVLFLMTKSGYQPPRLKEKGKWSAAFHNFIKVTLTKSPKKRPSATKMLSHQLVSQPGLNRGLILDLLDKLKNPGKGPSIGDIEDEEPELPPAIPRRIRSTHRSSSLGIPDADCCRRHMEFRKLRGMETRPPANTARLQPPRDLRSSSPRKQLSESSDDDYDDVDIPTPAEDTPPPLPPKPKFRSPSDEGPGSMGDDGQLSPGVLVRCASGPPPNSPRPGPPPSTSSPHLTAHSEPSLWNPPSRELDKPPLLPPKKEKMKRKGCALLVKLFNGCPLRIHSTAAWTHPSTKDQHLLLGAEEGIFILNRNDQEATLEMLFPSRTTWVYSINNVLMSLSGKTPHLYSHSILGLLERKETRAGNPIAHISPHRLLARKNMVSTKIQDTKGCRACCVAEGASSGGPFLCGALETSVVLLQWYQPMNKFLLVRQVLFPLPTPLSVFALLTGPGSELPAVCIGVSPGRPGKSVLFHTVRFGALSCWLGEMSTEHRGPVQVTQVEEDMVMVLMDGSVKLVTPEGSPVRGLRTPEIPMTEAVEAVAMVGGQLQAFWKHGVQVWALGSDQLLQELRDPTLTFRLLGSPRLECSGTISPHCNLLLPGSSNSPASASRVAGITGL
Take `Cc1ccc2[nH]ncc2c1-c1ccc2nc(NC(=O)C3CC3)sc2c1` [Example 1, N-(6-(5-methyl-1H-indazol-4-yl)benzo[d]thiazol-2-yl)cyclopropanecarboxamide]: the IC50 was 101 to 500 nM.
Then `CCc1ccc2[nH]ncc2c1-c1ccn2nc(NC(=O)[C@@H]3C[C@@H]3F)cc2c1` [Example 452, (1S,2S)-N-(5-(5-ethyl-1H-indazol-4-yl)pyrazolo[1,5-a]pyridin-2-yl)-2-fluorocyclopropane-1-carboxamide], with < 100 nM; and `O=C(Nc1cc2cc(-c3c(Br)c(F)cc4[nH]ncc34)ccn2n1)[C@@H]1C[C@@H]1F` [Example 464, (1S,2S)-N-(5-(5-bromo-6-fluoro-1H-indazol-4-yl)pyrazolo[1,5-a]pyridin-2-yl)-2-fluorocyclopropane-1-carboxamide], with < 100 nM; and `Cc1c(F)c(F)c2[nH]ncc2c1-c1ccc2nc(NC(=O)[C@@H]3C[C@@H]3F)sc2n1` [Example 186, (1S,2S)-N-(5-(6,7-difluoro-5-methyl-1H-indazol-4-yl)thiazolo[5,4-b]pyridin-2-yl)-2-fluorocyclopropane-1-carboxamide], with < 100 nM.
As to `CCc1c(F)cc2[nH]ncc2c1-c1ccc2nc(NC(=O)[C@@H]3C[C@@H]3F)sc2c1` [Example 46, (1S,2S)-N-(6-(5-ethyl-6-fluoro-1H-indazol-4-yl)benzo[d]thiazol-2-yl)-2-fluorocyclopropane-1-carboxamide], the IC50 was < 100 nM.
The same measure for `O=C(Nc1cc2cc(-c3c(Cl)c(F)c(Nc4ccncc4)c4[nH]ncc34)ccn2n1)[C@@H]1C[C@@H]1F` [Example 609, (1S,2S)-N-(5-(5-chloro-6-fluoro-7-(pyridin-4-ylamino)-1H-indazol-4-yl)pyrazolo[1,5-a]pyridin-2-yl)-2-fluorocyclopropane-1-carboxamide]: < 100 nM; for `CO[C@H](C)[C@@H](OC)c1c(F)c(Cl)c(-c2ccc3nc(NC(=O)[C@@H]4C[C@@H]4F)cn3c2)c2cn[nH]c12` [Example 440, (1S,2S)-N-(6-(5-chloro-7-((1S,2R)-1,2-dimethoxypropyl)-6-fluoro-1H-indazol-4-yl)imidazo[1,2-a]pyridin-2-yl)-2-fluorocyclopropane-1-carboxamide]: < 100 nM.
The same measure for `Cc1c(F)c(Cl)c2[nH]ncc2c1-c1ccn2nc(NC(=O)[C@@H]3C[C@@H]3F)cc2c1` [Example 479, (1S,2S)-N-(5-(7-chloro-6-fluoro-5-methyl-1H-indazol-4-yl)pyrazolo[1,5-a]pyridin-2-yl)-2-fluorocyclopropane-1-carboxamide]: < 100 nM; for `COC(=O)c1c(F)c(Cl)c(-c2ccn3nc(NC(=O)[C@@H]4C[C@@H]4F)cc3c2)c2cn[nH]c12` [Example 554, methyl 5-chloro-6-fluoro-4-(2-((1S,2S)-2-fluorocyclopropane-1-carboxamido)pyrazolo[1,5-a]pyridin-5-yl)-1H-indazole-7-carboxylate]: < 100 nM; for `CCc1c(F)c(N(CC)CC)c2[nH]ncc2c1-c1ccn2nc(NC(=O)[C@@H]3C[C@@H]3F)cc2c1` [Example 518, (1S,2S)-N-(5-(7-(diethylamino)-5-ethyl-6-fluoro-1H-indazol-4-yl)pyrazolo[1,5-a]pyridin-2-yl)-2-fluorocyclopropane-1-carboxamide]: < 100 nM.
For the molecule `Nc1cc2[nH]ncc2c(-c2ccc3nc(NC(=O)[C@@H]4C[C@@H]4F)cn3c2)c1Cl` [Example 284, (1S,2S)-N-(6-(6-amino-5-chloro-1H-indazol-4-yl)imidazo[1,2-a]pyridin-2-yl)-2-fluorocyclopropane-1-carboxamide], the IC50 was 101 to 500 nM.
For the molecule `O=C(Nc1cn2cc(-c3c(Cl)c(F)c(CF)c4[nH]ncc34)ccc2n1)[C@@H]1C[C@@H]1F` [Example 363, (1S,2S)-N-(6-(5-chloro-6-fluoro-7-(fluoromethyl)-1H-indazol-4-yl)imidazo[1,2-a]pyridin-2-yl)-2-fluorocyclopropane-1-carboxamide], the IC50 was < 100 nM.
The same measure for `CCN(CC)c1c(F)c(Cl)c(-c2ccn3nc(NC(=O)[C@@H]4C[C@@H]4F)cc3c2)c2cn[nH]c12` [Example 497, (1S,2S)-N-(5-(5-chloro-7-(diethylamino)-6-fluoro-1H-indazol-4-yl)pyrazolo[1,5-a]pyridin-2-yl)-2-fluorocyclopropane-1-carboxamide]: < 100 nM; for `O=C(Nc1nc2ccc(-c3c(CO)ccc4[nH]ncc34)cc2s1)C1CC1` [Example 25, N-(6-(5-(hydroxymethyl)-1H-indazol-4-yl)benzo[d]thiazol-2-yl)cyclopropanecarboxamide]: 501 to 1000 nM; for `O=C(Nc1cc2cc(-c3c(Br)ccc4[nH]ncc34)ccn2n1)[C@@H]1C[C@@H]1F` [Example 455, (1S,2S)-N-(5-(5-bromo-1H-indazol-4-yl)pyrazolo[1,5-a]pyridin-2-yl)-2-fluorocyclopropane-1-carboxamide]: < 100 nM.
Consider `O=C(Nc1cn2cc(-c3c(C(F)(F)F)ccc4[nH]ncc34)ccc2n1)[C@@H]1C[C@@H]1F` [Example 236, (1S,2S)-2-fluoro-N-(6-(5-(trifluoromethyl)-1H-indazol-4-yl)imidazo[1,2-a]pyridin-2-yl)cyclopropane-1-carboxamide], for which the IC50 was < 100 nM.
Then `CN(C)C(=O)c1c(F)cc2[nH]ncc2c1-c1ccc2nc(NC(=O)[C@@H]3C[C@@H]3F)cn2c1` [Example 355, 6-fluoro-4-(2-((1S,2S)-2-fluorocyclopropane-1-carboxamido)imidazo[1,2-a]pyridin-6-yl)-N,N-dimethyl-1H-indazole-5-carboxamide], with > 1000 nM; and `COc1cc(C)c(-c2ccc3nc(NC(=O)[C@@H]4C[C@@H]4F)cn3c2)c2cn[nH]c12` [Example 285, (1S,2S)-2-fluoro-N-(6-(7-methoxy-5-methyl-1H-indazol-4-yl)imidazo[1,2-a]pyridin-2-yl)cyclopropane-1-carboxamide], with < 100 nM.
For `COc1ccc2[nH]ncc2c1-c1ccc2nc(NC(=O)C3CC3)sc2c1` [Example 24, N-(6-(5-methoxy-1H-indazol-4-yl)benzo[d]thiazol-2-yl)cyclopropanecarboxamide], the IC50 lay within 101 to 500 nM.
Turning to `CCOc1c(F)c(CC)c(-c2ccc3nc(NC(=O)[C@@H]4C[C@@H]4F)cn3c2)c2cn[nH]c12` [Example 318, (1S,2S)-N-(6-(7-ethoxy-5-ethyl-6-fluoro-1H-indazol-4-yl)imidazo[1,2-a]pyridin-2-yl)-2-fluorocyclopropane-1-carboxamide], the IC50 is < 100 nM.
The same measure for `CC(=O)Nc1c(F)c(Cl)c(-c2ccc3nc(NC(=O)[C@@H]4C[C@@H]4F)sc3n2)c2cn[nH]c12` [Example 179, (1S,2S)-N-(5-(7-acetamido-5-chloro-6-fluoro-1H-indazol-4-yl)thiazolo[5,4-b]pyridin-2-yl)-2-fluorocyclopropane-1-carboxamide]: < 100 nM.
Then `C=Cc1cc(C)c(-c2ccn3nc(NC(=O)[C@@H]4C[C@@H]4F)cc3c2)c2cn[nH]c12` [Example 483, (1S,2S)-2-fluoro-N-(5-(5-methyl-7-vinyl-1H-indazol-4-yl)pyrazolo[1,5-a]pyridin-2-yl)cyclopropane-1-carboxamide], with < 100 nM; and `CN(c1ncncn1)c1c(F)c(Cl)c(-c2ccn3nc(NC(=O)[C@@H]4C[C@@H]4F)cc3c2)c2cn[nH]c12` [Example 617, (1S,2S)-N-(5-(5-chloro-6-fluoro-7-(methyl(1,3,5-triazin-2-yl)amino)-1H-indazol-4-yl)pyrazolo[1,5-a]pyridin-2-yl)-2-fluorocyclopropane-1-carboxamide], with < 100 nM.
The same measure for `O=C(Nc1nc2ccc(-c3c(Br)c(F)cc4[nH]ncc34)cc2s1)[C@@H]1C[C@@H]1F` [Example 42, (1S,2S)-N-(6-(5-bromo-6-fluoro-1H-indazol-4-yl)benzo[d]thiazol-2-yl)-2-fluorocyclopropane-1-carboxamide]: 101 to 500 nM; for `CN(CC1CNC1)c1c(F)c(Cl)c(-c2ccc3nc(NC(=O)[C@@H]4C[C@@H]4F)sc3c2)c2cn[nH]c12` [Example 94, (1S,2S)-N-(6-(7-((azetidin-3-ylmethyl)(methyl)amino)-5-chloro-6-fluoro-1H-indazol-4-yl)benzo[d]thiazol-2-yl)-2-fluorocyclopropanecarboxamide]: < 100 nM; for `CC(C)c1c(F)cc2[nH]ncc2c1-c1ccc2nc(NC(=O)C3CC3)cn2c1` [Example 246, N-(6-(6-fluoro-5-isopropyl-1H-indazol-4-yl)imidazo[1,2-a]pyridin-2-yl)cyclopropanecarboxamide]: < 100 nM.
Regarding `CCc1c(F)c(SCC(=O)O)c2[nH]ncc2c1-c1ccn2nc(NC(=O)[C@@H]3C[C@@H]3F)cc2c1` [Example 526, 2-((5-ethyl-6-fluoro-4-(2-((1S,2S)-2-fluorocyclopropane-1-carboxamido)pyrazolo[1,5-a]pyridin-5-yl)-1H-indazol-7-yl)thio)acetic acid], the IC50 was < 100 nM.
Then `CC(NC(=O)C(F)(F)F)c1c(F)c(Cl)c(-c2ccn3nc(NC(=O)[C@@H]4C[C@@H]4F)cc3c2)c2cn[nH]c12` (stereo partly drawn) [Example 662, (1S,2S)-N-(5-(5-chloro-6-fluoro-7-(1-(2,2,2-trifluoroacetamido)ethyl)-1H-indazol-4-yl)pyrazolo[1,5-a]pyridin-2-yl)-2-fluorocyclopropane-1-carboxamide], with < 100 nM; and `CC(=O)N(C)c1c(F)c(C)c(-c2ccc3nc(NC(=O)[C@@H]4C[C@@H]4F)sc3c2)c2cn[nH]c12` [Example 120, (1S,2S)-2-fluoro-N-(6-(6-fluoro-5-methyl-7-(N-methylacetamido)-1H-indazol-4-yl)benzo[d]thiazol-2-yl)cyclopropane-1-carboxamide], with < 100 nM; and `O=C(Nc1cc2cc(-c3c(Cl)c(F)c(N4CCC4)c4[nH]ncc34)ccn2n1)[C@@H]1C[C@@H]1F` [Example 501, (1S,2S)-N-(5-(7-(azetidin-1-yl)-5-chloro-6-fluoro-1H-indazol-4-yl)pyrazolo[1,5-a]pyridin-2-yl)-2-fluorocyclopropane-1-carboxamide], with < 100 nM.

The values above are taken from US11649255B2, “Indazoles as hematopoietic progenitor kinase 1 (HPK1) inhibitors and methods using same” (1st Biotherapeutics, Inc., priority 2020, dated 2023).
